According to patent US20240252677A1, “ONE-COMPONENT DELIVERY SYSTEM FOR NUCLEIC ACIDS” (The Trustees of the University of Pennsylvania, priority 2021, published 2024):
Read-outs that look alike come from different tables or passages of the source.

Columns and labels:
[1] = Table 16, IAJDs marked a (Zhang et al., J. Am. Chem. Soc. 2021); IAJD 4 mg/mL, Luc-mRNA 0.10 mg/mL, acetate buffer 10 mM pH 4.0; cited from earlier work
[2] = Serum stability of DNPs, dimensions in 1% fetal bovine serum by DLS; format: physicochemical
Description: Sample preparation: injected 25 μL ethanol stock solution of IAJD125/155 (80 mg/mL) into the mixture of 462.5 μL acetate buffer (10 mM, pH 4.0) and 12.5 μL Luc-mRNA (4.0 mg/mL in water), followed by vortex for 5 seconds.
Final composition of DNP solution: IAJD125/155 (4.0 mg/mL)+Luc-mRNA (0.1 mg/mL) in 500 μL acetate buffer. The dimension of assemblies in solution was checked by DLS.
DNPs in 1% Serum: Serum (5.5 μL)+[500 μL solution of IAJD (4.0 mg/mL) and Luc-mRNA (0.1 mg/mL].

[3] = Stability of DNPs by DLS after storage at 5° C.; format: physicochemical; set-up: key: Excellent: the original sizes and distribution remains almost the same after storage; Good: the original relatively big sizes became smaller or broad size distribution became narrower; Not stable: the original relatively big sizes or broad size distribution remained almost the similar level, or the original relatively small sizes became bigger or narrow size distribution became broader; settings: storage time 2 days; CIAJD 4.0 mg/mL; CLuc-mRNA 0.1 mg/mL; acetate buffer pH 4.0
Description: The stability of the DNPs as assayed by DLS. All the samples are prepared in acetate buffer. The stabilities of the constructs were ranked: Excellent (in bold)—the original sizes and distribution remains almost the same after storage; Good—the original relatively big sizes became smaller or broad size distribution became narrower; Not stable—the original relatively big sizes or broad size distribution remained almost the similar level, or the original relatively small sizes became bigger or narrow size distribution became broader.

[4] = DNPs in acetate buffer (pH 4.0), no serum, IAJD 4.0 mg/mL + Luc-mRNA 0.1 mg/mL

Compound: CCCCCCCCCCCCOc1cc(COC(=O)CCCN2CCN(CCO)CC2)cc(OCCCCCCCCCCCC)c1 [IAJD 71, 3,5-Bis(dodecyloxy)benzyl 4-(4-(2-hydroxyethyl)piperazin-1-yl)butanoate]
- PDI [1]: 0.451
- Size (d, nm) [1]: 237 nm

Compound: CCCCCCCCCCCCCCCCCCOc1cc(COC(=O)CCCN2CCN(C)CC2)cc(OCCCCCCCCCCC)c1 [IAJD 81, 3-(Octadecyloxy)-5-(undecyloxy)benzyl 4-(4-methylpiperazin-1-yl)butanoate]
- PDI [1]: 0.287
- Size (d, nm) [1]: 111 nm

Compound: CCCCCCCCCCCCCCCCOc1cc(COC(=O)CCCN2CCN(C)CC2)cc(OCCCCCCCCCCC)c1 [IAJD 86, 3-(Hexadecyloxy)-5-(undecyloxy)benzyl 4-(4-methylpiperazin-1-yl)butanoate]
- PDI [1]: 0.234
- Size (d, nm) [1]: 91 nm

Compound: CCCCCCCCCCCCCCOc1cc(COC(=O)CCCN2CCN(C)CC2)cc(OCCCCCCCCCCC)c1 [IAJD 105, 3-(Tetradecyloxy)-5-(undecyloxy)benzyl 4-(4-methylpiperazin-1-yl)butanoate]
- PDI [1]: 0.294
- Size (d, nm) [1]: 94 nm

Compound: CCCCCCCCCCCCCCCCOc1cc(COC(=O)CCCN2CCN(C)CC2)cc(OCCCCCCCCCCCC)c1 [IAJD 106, 3-(Dodecyloxy)-5-(hexadecyloxy)benzyl 4-(4-methylpiperazin-1-yl)butanoate]
- PDI [1]: 0.275
- Size (d, nm) [1]: 105 nm

Compound: CCCCCCCCCCCCCCCCCCOc1cc(COC(=O)CCCN2CCN(C)CC2)cc(OCCCCCCCCCCCC)c1 [IAJD 107, 3-(Dodecyloxy)-5-(octadecyloxy)benzyl 4-(4-methylpiperazin-1-yl)butanoate]
- PDI [1]: 0.279
- Size (d, nm) [1]: 146 nm

Compound: CCCCCCCCCCCCCCOc1cc(COC(=O)CCCN2CCN(CCO)CC2)cc(OCCCCCCCCCCC)c1 [IAJD 125, 3-(Tetradecyloxy)-5-(undecyloxy)benzyl 4-(4-(2-hydroxyethyl)piperazin-1-yl)butanoate]
- PDI ([2]; DNPs in 1% Serum, t = 0 min): 0.234
- Size (nm) ([2]; DNPs in 1% Serum, t = 0 min): 207 nm
- PDI ([2]; DNPs in 1% Serum, t = 10 min): 0.290
- Size (nm) ([2]; DNPs in 1% Serum, t = 10 min): 206 nm
- PDI ([2]; DNPs in 1% Serum, t = 20 min): 0.303
- Size (nm) ([2]; DNPs in 1% Serum, t = 20 min): 199 nm
- PDI ([2]; DNPs in 1% Serum, t = 30 min): 0.256
- Size (nm) ([2]; DNPs in 1% Serum, t = 30 min): 197 nm
- PDI ([2]; DNPs in 1% Serum, t = 40 min): 0.284
- Size (nm) ([2]; DNPs in 1% Serum, t = 40 min): 200 nm
- PDI ([2]; DNPs in 1% Serum, t = 50 min): 0.339
- Size (nm) ([2]; DNPs in 1% Serum, t = 50 min): 190 nm
- PDI ([2]; DNPs in 1% Serum, t = 60 min): 0.258
- Size (nm) ([2]; DNPs in 1% Serum, t = 60 min): 194 nm
- PDI [2, 4]: 0.273
- Size (nm) [2, 4]: 196 nm

Compound: CCCCCCCCCCCOc1cc(COC(=O)c2cc(OCCOCCOCCCC(=O)CCCN3CCCCC3)c(OCCOCCOCCOCc3ccccc3)c(OCCOCCOCCOC(=O)CCCN3CCCCC3)c2)cc(OCC(CC)CCCC)c1 (stereo not drawn) [IAJD 155]
- PDI ([2]; DNPs in 1% Serum, t = 0 min): 0.186
- Size (nm) ([2]; DNPs in 1% Serum, t = 0 min): 93 nm
- PDI ([2]; DNPs in 1% Serum, t = 10 min): 0.171
- Size (nm) ([2]; DNPs in 1% Serum, t = 10 min): 101 nm
- PDI ([2]; DNPs in 1% Serum, t = 20 min): 0.186
- Size (nm) ([2]; DNPs in 1% Serum, t = 20 min): 105 nm
- PDI ([2]; DNPs in 1% Serum, t = 30 min): 0.173
- Size (nm) ([2]; DNPs in 1% Serum, t = 30 min): 107 nm
- PDI ([2]; DNPs in 1% Serum, t = 40 min): 0.161
- Size (nm) ([2]; DNPs in 1% Serum, t = 40 min): 108 nm
- PDI ([2]; DNPs in 1% Serum, t = 50 min): 0.174
- Size (nm) ([2]; DNPs in 1% Serum, t = 50 min): 111 nm
- PDI ([2]; DNPs in 1% Serum, t = 60 min): 0.149
- Size (nm) ([2]; DNPs in 1% Serum, t = 60 min): 108 nm
- PDI [2, 4]: 0.256
- Size (nm) [2, 4]: 83 nm

Compound: Diheptyl 5,5′-((5-(((4-(4-methylpiperazin-1-yl)butanoyl)oxy)methyl)-1,3-phenylene)bis(oxy)) dipentanoate [IAJD 85]
- Ranking of stability [3]: Excellent
